The record followed here is patent publication US11078168B2, “Substituted N-hydroxyamidinoheterocycles as modulators of indoleamine 2,3-dioxygenase” (PHENEX DISCOVERY VERWALTUNGS-GMBH, priority 2016, dated 2021).

The target of this test is T1, Indoleamine 2,3-dioxygenase (Homo sapiens, UniProt P14902).
T1 construct: endogenous in cells; host or cells: SKOV-3 (ATCC HTB-77), stimulated with interferon gamma
T1 sequence (P14902 whole entry): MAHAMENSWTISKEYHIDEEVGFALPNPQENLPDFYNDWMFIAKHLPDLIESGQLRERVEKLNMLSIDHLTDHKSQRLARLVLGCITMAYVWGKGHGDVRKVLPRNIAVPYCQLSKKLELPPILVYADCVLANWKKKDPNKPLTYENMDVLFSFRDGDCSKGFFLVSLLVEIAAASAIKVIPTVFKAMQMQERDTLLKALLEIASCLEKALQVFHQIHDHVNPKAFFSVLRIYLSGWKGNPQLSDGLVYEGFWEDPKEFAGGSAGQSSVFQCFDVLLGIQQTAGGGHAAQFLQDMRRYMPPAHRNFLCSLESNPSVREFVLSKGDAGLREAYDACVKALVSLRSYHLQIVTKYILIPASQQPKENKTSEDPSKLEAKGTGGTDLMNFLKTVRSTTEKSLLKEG
Nature of the test: SKOV-3 cellular Indoleamine 2,3-dioxygenase assay. The following applies: SKOV-3 cells, 50 ng/ml Interferon gamma, 100 μM L-Tryptophan, 24 hours, N-Formylkynurenin fluorescence detection; read-out: cell based activity. An outline of the steps: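 SKOV-3 cells stimulated with 50 ng/ml interferon gamma, exposed to compound dilutions with L-tryptophan at 100 µM final for 24 h at 37 °C. N-formylkynurenine detected by 200 mM 3-methylpiperidine, 65 °C for 20 min, fluorescence ex 405/em 535 nm.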
For `NC(=O)C1(C(=O)NCCOc2nonc2C(=NO)Nc2ccc(F)c(Cl)c2)CC1` [Example 7, N-(2-((4-(N-(3-chloro-4-fluorophenyl)-N′-hydroxycarbamimidoyl)-1,2,5-oxadiazol-3-yl)oxy)ethyl)cyclopropane-1,1-dicarboxamide], the IC50 is below 100 nM.

Take `ON=C(Nc1ccc(F)c(Br)c1)c1nonc1OCc1ccccc1` [Example 8, 4-(Benzyloxy)-N-(3-bromo-4-fluorophenyl)-N′-hydroxy-1,2,5-oxadiazole-3-carboximidamide]: the IC50 is above 1000 nM.

Regarding `O=C(NCCOc1nonc1C(=NO)Nc1ccc(F)c(Cl)c1)c1nnn[nH]1` [Example 9, N-(2-((4-(N-(3-chloro-4-fluorophenyl)-N′-hydroxycarbamimidoyl)-1,2,5-oxadiazol-3-yl)oxy)ethyl)-1H-tetrazole-5-carboxamide], the IC50 was above 1000 nM.

On to `ON=C(Nc1ccc(F)c(Cl)c1)c1nonc1OCCN1CCOCC1` [Example 10, N-(3-Chloro-4-fluorophenyl)-N′-hydroxy-4-(2-morpholinoethoxy)-1,2,5-oxadiazole-3-carboximidamide], for which the IC50 fell in the range of 100 to 1000 nM.

With `NC(=O)CCCOc1nonc1C(=NO)Nc1ccc(F)c(Cl)c1` [Example 11, 4-((4-(N-(3-Chloro-4-fluorophenyl)-N′-hydroxycarbamimidoyl)-1,2,5-oxadiazol-3-yl)oxy)butanamide], the IC50 lay in the range of 100 to 1000 nM.

On to `Cc1nnc(CCCOc2nonc2C(=NO)Nc2ccc(F)c(Cl)c2)[nH]1` [Example 12, N-(3-Chloro-4-fluorophenyl)-N′-hydroxy-4-(3-(5-methyl-4H-1,2,4-triazol-3-yl)propoxy)-1,2,5-oxadiazole-3-carboximidamide], for which the IC50 was in the range of 100 to 1000 nM.

Consider `O=C(O)CCOc1nonc1C(=NO)Nc1ccc(F)c(Cl)c1` [Example 13, 3-((4-(N-(3-Chloro-4-fluorophenyl)-N′-hydroxycarbamimidoyl)-1,2,5-oxadiazol-3-yl)oxy)propanoic acid], for which the IC50 was above 1000 nM.

For `Cc1nnc(NCCOc2nonc2C(=NO)Nc2ccc(F)c(Cl)c2)o1` [Example 14, N-(3-Chloro-4-fluorophenyl)-N′-hydroxy-4-(2-((5-methyl-1,3,4-oxadiazol-2-yl)amino)ethoxy)-1,2,5-oxadiazole-3-carboximidamide], the IC50 fell in the range of 100 to 1000 nM.

Turning to `Nc1nnc(NCCOc2nonc2C(=NO)Nc2ccc(F)c(Cl)c2)[nH]1` [Example 15, 4-(2-((5-Amino-4H-1,2,4-triazol-3-yl)amino)ethoxy)-N-(3-chloro-4-fluorophenyl)-N′-hydroxy-1,2,5-oxadiazole-3-carboximidamide], the IC50 was in the range of 100 to 1000 nM.

Turning to `CC(CN)Oc1nonc1C(=NO)Nc1ccc(F)c(Cl)c1` (stereo not drawn) [Example 17, 4-((1-Aminopropan-2-yl)oxy)-N-(3-chloro-4-fluorophenyl)-N′-hydroxy-1,2,5-oxadiazole-3-carboximidamide], the IC50 lay within 100 to 1000 nM.

As for `O=C(NCCOc1nonc1C(=NO)Nc1ccc(F)c(Cl)c1)N1C[C@@H](O)[C@@H](O)C1` [Example 18, (3S,4R)—N-(2-((4-(N-(3-Chloro-4-fluorophenyl)-N′-hydroxycarbamimidoyl)-1,2,5-oxadiazol-3-yl)oxy)ethyl)-3,4-dihydroxypyrrolidine-1-carboxamide], the IC50 fell in the range of 100 to 1000 nM.

Take `CS(=O)(=O)CCOc1nonc1C(=NO)Nc1ccc(F)c(Cl)c1` [Example 20, N-(3-Chloro-4-fluorophenyl)-N′-hydroxy-4-(2-(methylsulfonyl)ethoxy)-1,2,5-oxadiazole-3-carboximidamide]: the IC50 is above 1000 nM.

Regarding `CS(=N)(=O)NCCOc1nonc1C(=NO)Nc1ccc(F)c(Cl)c1` (stereo not drawn) [Example 21, N-(3-Chloro-4-fluorophenyl)-N-hydroxy-4-(2-(methylsulfonoamidimidamido)ethoxy)-1,2,5-oxadiazole-3-carboximidamide], the IC50 lay in the range of 100 to 1000 nM.

`COc1nonc1C(=NO)Nc1cccc(CCCl)c1` [Example 22, N-(3-(2-Chloroethyl)phenyl)-N′-hydroxy-4-methoxy-1,2,5-oxadiazole-3-carboximidamide]: the IC50 was above 1000 nM.

For the compound `CS(=O)(=O)NCCSc1nonc1/C(=N/O)Nc1ccc(F)c(Br)c1` [Example 100, N-(3-Bromo-4-fluorophenyl)-N′-hydroxy-4-((2-(methylsulfonamido)ethyl)thio)-1,2,5-oxadiazole-3-carboximidamide], the IC50 is below 100 nM.

For `NS(=O)(=O)NCCSc1nonc1/C(=N/O)Nc1ccc(F)c(Br)c1` [Example 101, N-(3-Bromo-4-fluorophenyl)-N′-hydroxy-4-((2-(sulfamoylamino)ethyl)thio)-1,2,5-oxadiazole-3-carboximidamide], the IC50 is below 100 nM.

For `Nc1c(NCCSc2nonc2C(=NO)Nc2ccc(F)c(Cl)c2)c(=O)c1=O` [Example 102, 4-((2-((2-Amino-3,4-dioxocyclobut-1-en-1-yl)amino)ethyl)thio)—N-(3-chloro-4-fluorophenyl)-N′-hydroxy-1,2,5-oxadiazole-3-carboximidamide], the IC50 was below 100 nM.

As to `ON=C(Nc1ccc(F)c(Cl)c1)c1nonc1SCc1ccccc1` [Example 103, 4-(Benzylthio)—N-(3-chloro-4-fluorophenyl)-N′-hydroxy-1,2,5-oxadiazole-3-carboximidamide], the IC50 lay in the range of 100 to 1000 nM.

Consider `CSc1nonc1/C(=N/O)Nc1ccc(F)c(Br)c1` [Example 103/1, N-(3-bromo-4-fluorophenyl)-N′-hydroxy-4-(methylthio)-1,2,5-oxadiazole-3-carboximidamide], for which the IC50 is below 100 nM.

As for `ON=C(Nc1ccc(F)c(Br)c1)c1nonc1SCC(F)(F)F` [Example 103/2], the IC50 is below 100 nM.

`ON=C(Nc1ccc(F)c(Br)c1)c1nonc1SC1CC1` [Example 103/3]: the IC50 was below 100 nM.

Consider `O=S(=O)(Cc1ccccc1)c1nonc1C(=NO)Nc1ccc(F)c(Cl)c1` [Example 104, 4-(Benzylsulfonyl)-N-(3-chloro-4-fluorophenyl)-N′-hydroxy-1,2,5-oxadiazole-3-carboximidamide], for which the IC50 is above 1000 nM.

Regarding `C[S+]([O-])c1nonc1C(=NO)Nc1ccc(F)c(Br)c1` (stereo not drawn) [Example 105, N-(3-Bromo-4-fluorophenyl)-N′-hydroxy-4-(methylsulfinyl)-1,2,5-oxadiazole-3-carboximidamide], the IC50 lay within 100 to 1000 nM.

Turning to `CS(=N)(=O)c1nonc1C(=NO)Nc1ccc(F)c(Br)c1` (stereo not drawn) [Example 106, N-(3-Bromo-4-fluorophenyl)-N′-hydroxy-4-(S-methylsulfonimidoyl)-1,2,5-oxadiazole-3-carboximidamide], the IC50 is above 1000 nM.

On to `O=C(NCCSc1nonc1C(=NO)Nc1ccc(F)c(C(F)F)c1)C(O)CO` (stereo not drawn) [Example 107, N-(2-((4-(N-(3-(Difluoromethyl)-4-fluorophenyl)-N′-hydroxycarbamimidoyl)-1,2,5-oxadiazol-3-yl)thio)ethyl)-2,3-dihydroxypropanamide], for which the IC50 was below 100 nM.

With `CC1(O)CN(CCSc2nonc2C(=NO)Nc2ccc(F)c(C(F)F)c2)C1` [Example 108, N-(3-(Difluoromethyl)-4-fluorophenyl)-N′-hydroxy-4-((2-(3-hydroxy-3-methylazetidin-1-yl)ethyl)thio)-1,2,5-oxadiazole-3-carboximidamide], the IC50 was below 100 nM.

Turning to `Nc1c(NCC[S+]([O-])c2nonc2C(=NO)Nc2ccc(F)c(Cl)c2)c(=O)c1=O` (stereo not drawn) [Example 109, 4-((2-((2-Amino-3,4-dioxocyclobut-1-en-1-yl)amino)ethyl)sulfinyl)-N-(3-chloro-4-fluorophenyl)-N′-hydroxy-1,2,5-oxadiazole-3-carboximidamide], the IC50 fell in the range of 100 to 1000 nM.

Consider `Nc1nnc(NCCSc2nonc2C(=NO)Nc2ccc(F)c(C(F)F)c2)[nH]1` [Example 110, 4-((2-((5-Amino-4H-1,2,4-triazol-3-yl)amino)ethyl)thio)—N-(3-(difluoromethyl)-4-fluorophenyl)-N′-hydroxy-1,2,5-oxadiazole-3-carboximidamide], for which the IC50 is 100 to 1000 nM.

Turning to `Cc1nnc(NCCSc2nonc2C(=NO)Nc2ccc(F)c(C(F)F)c2)o1` [Example 111, N-(3-(Difluoromethyl)-4-fluorophenyl)-N′-hydroxy-4-((2-((5-methyl-1,3,4-oxadiazol-2-yl)amino)ethyl)thio)-1,2,5-oxadiazole-3-carboximidamide], the IC50 is below 100 nM.

Regarding `NS(=O)(=O)NCCSc1nonc1C(=NO)Nc1cccc(C(F)F)c1` [Example 112, N-(3-(Difluoromethyl)phenyl)-N′-hydroxy-4-((2-(sulfamoylamino)ethyl)thio)-1,2,5-oxadiazole-3-carboximidamide], the IC50 is below 100 nM.

For `NS(=O)(=O)NCCSc1nonc1C(=NO)Nc1ccnc(C(F)(F)F)c1` [Example 112/1, N′—Hydroxy-4-((2-(sulfamoylamino)ethyl)thio)—N-(2-(trifluoromethyl)pyridin-4-yl)-1,2,5-oxadiazole-3-carboximidamide], the IC50 was in the range of 100 to 1000 nM.

For the compound `NC(=O)C(=O)NCCSc1nonc1C(=NO)Nc1ccc(F)c(Cl)c1` [Example 116, N^1-(2-((4-(N-(3-Chloro-4-fluorophenyl)-N′-hydroxycarbamimidoyl)-1,2,5-oxadiazol-3-yl)thio)ethyl)oxalamide], the IC50 was below 100 nM.

As for `O=C(NCCSc1nonc1C(=NO)Nc1ccc(F)c(Cl)c1)c1nnn[nH]1` [Example 117, N-(2-((4-(N-(3-Chloro-4-fluorophenyl)-N′-hydroxycarbamimidoyl)-1,2,5-oxadiazol-3-yl)thio)ethyl)-1H-tetrazole-5-carboxamide], the IC50 fell in the range of 100 to 1000 nM.

In the case of `NC(=O)C(F)(F)C(=O)NCCSc1nonc1C(=NO)Nc1ccc(F)c(C(F)F)c1` [Example 118], the IC50 is below 100 nM.

In the case of `NC(=O)CC(=O)NCCSc1nonc1C(=NO)Nc1ccc(F)c(C(F)F)c1` [Example 119], the IC50 was below 100 nM.

As for `CS(=N)(=O)NCCSc1nonc1C(=NO)Nc1ccc(F)c(Cl)c1` (stereo not drawn) [Example 120], the IC50 is below 100 nM.
